According to ChEMBL document CHEMBL3616395, “Discovery of 4-arylamido 3-methyl isoxazole derivatives as novel FMS kinase inhibitors” (Eur J Med Chem, 2015):
The source made the active and inactive calls. The rule behind the calls is not given here.

Assays:
[1] = Cytotoxicity against human HS27 cells after 24 hrs by MTT assay; assay type: cell-based
[2] = tested on: U-937; assay: Antiproliferative activity against human U937 cells after 24 hrs by MTT assay; assay type: functional; settings: U-937, 24 h
[3] = tested on: A375P; assay: Antiproliferative activity against human A375P cells after 24 hrs by MTT assay; assay type: functional, cell-based
[4] = target: Serine/threonine-protein kinase PLK1 (Homo sapiens) (UniProt P53350); assay: Inhibition of PLK1 (unknown origin) at 10 uM after 40 mins by scintillation counting analysis
[5] = target: T1, Tyrosine-protein kinase Lyn (Homo sapiens, UniProt P07948); assay: Inhibition of Lyn (unknown origin) at 10 uM after 40 mins by scintillation counting analysis
[6] = target: Hepatocyte growth factor receptor (Homo sapiens) (UniProt P08581); assay: Inhibition of c-MET (unknown origin) at 10 uM after 40 mins by scintillation counting analysis
[7] = target: T1, Tyrosine-protein kinase Lyn; assay: Inhibition of Lyn (unknown origin) after 40 mins by scintillation counting analysis
[8] = target: Tyrosine-protein kinase JAK3 (Homo sapiens) (UniProt P52333); assay: Inhibition of Jak3 (unknown origin) at 10 uM after 40 mins by scintillation counting analysis
Tyrosine-protein kinase JAK3 (Homo sapiens), sequence (P52333 whole entry): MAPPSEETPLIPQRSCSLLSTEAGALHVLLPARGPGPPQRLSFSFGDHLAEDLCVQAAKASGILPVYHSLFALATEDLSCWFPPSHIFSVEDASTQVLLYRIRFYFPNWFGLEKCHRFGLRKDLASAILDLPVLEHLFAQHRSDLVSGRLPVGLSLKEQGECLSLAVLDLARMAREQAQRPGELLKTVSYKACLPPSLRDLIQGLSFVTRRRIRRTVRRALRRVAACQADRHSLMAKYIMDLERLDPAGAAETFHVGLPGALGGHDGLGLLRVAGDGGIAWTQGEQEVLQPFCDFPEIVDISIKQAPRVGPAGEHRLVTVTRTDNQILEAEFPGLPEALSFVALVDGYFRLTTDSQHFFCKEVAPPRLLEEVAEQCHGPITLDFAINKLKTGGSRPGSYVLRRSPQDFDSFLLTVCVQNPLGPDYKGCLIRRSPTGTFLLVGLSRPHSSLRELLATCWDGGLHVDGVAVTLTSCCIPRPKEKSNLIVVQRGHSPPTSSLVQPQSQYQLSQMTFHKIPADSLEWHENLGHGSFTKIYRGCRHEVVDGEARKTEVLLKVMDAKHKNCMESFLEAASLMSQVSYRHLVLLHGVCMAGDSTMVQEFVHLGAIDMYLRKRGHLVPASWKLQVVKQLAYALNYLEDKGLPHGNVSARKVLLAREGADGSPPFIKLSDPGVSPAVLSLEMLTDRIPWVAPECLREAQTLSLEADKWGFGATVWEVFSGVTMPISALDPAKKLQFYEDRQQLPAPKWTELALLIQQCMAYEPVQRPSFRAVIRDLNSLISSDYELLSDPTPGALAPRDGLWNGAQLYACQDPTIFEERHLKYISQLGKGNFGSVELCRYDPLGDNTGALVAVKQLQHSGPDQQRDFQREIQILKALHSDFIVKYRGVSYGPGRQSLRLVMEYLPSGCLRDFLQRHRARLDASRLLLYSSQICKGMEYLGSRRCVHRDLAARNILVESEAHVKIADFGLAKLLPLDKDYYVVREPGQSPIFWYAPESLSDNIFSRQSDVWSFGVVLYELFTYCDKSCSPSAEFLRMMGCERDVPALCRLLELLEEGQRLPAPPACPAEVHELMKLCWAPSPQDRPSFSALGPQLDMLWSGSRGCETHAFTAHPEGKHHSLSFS

[9] = target: T2, Serine/threonine-protein kinase B-raf (Homo sapiens, UniProt P15056); assay: Inhibition of BRAF (unknown origin) at 10 uM after 40 mins by scintillation counting analysis
T2 sequence (P15056 whole entry): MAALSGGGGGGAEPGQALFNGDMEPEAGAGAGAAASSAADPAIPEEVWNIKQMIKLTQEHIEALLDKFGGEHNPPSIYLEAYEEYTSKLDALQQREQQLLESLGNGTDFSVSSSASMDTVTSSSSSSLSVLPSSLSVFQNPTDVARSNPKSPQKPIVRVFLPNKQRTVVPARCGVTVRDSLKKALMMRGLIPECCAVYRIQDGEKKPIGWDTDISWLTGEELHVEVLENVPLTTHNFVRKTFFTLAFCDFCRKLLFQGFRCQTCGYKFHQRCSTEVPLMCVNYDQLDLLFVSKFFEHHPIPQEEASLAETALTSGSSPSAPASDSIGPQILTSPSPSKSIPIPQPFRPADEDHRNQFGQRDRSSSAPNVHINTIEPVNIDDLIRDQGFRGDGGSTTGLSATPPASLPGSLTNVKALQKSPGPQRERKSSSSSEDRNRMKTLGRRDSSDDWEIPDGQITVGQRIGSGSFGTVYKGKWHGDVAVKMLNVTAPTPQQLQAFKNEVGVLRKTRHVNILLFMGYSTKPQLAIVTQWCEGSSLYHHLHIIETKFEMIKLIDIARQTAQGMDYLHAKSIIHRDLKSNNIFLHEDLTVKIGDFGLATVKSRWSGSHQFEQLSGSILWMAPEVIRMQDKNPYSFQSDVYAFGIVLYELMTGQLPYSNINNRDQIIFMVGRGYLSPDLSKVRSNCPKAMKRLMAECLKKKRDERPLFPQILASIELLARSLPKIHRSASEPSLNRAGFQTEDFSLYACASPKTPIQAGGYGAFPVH

[10] = target: Mast/stem cell growth factor receptor Kit (Homo sapiens) (UniProt P10721); assay: Inhibition of c-Kit (unknown origin) at 10 uM after 40 mins by scintillation counting analysis
[11] = target: T3, Macrophage colony-stimulating factor 1 receptor (Homo sapiens, UniProt P07333); assay: Inhibition of FMS (unknown origin) at 10 uM after 40 mins by scintillation counting analysis
T3 sequence (P07333 whole entry): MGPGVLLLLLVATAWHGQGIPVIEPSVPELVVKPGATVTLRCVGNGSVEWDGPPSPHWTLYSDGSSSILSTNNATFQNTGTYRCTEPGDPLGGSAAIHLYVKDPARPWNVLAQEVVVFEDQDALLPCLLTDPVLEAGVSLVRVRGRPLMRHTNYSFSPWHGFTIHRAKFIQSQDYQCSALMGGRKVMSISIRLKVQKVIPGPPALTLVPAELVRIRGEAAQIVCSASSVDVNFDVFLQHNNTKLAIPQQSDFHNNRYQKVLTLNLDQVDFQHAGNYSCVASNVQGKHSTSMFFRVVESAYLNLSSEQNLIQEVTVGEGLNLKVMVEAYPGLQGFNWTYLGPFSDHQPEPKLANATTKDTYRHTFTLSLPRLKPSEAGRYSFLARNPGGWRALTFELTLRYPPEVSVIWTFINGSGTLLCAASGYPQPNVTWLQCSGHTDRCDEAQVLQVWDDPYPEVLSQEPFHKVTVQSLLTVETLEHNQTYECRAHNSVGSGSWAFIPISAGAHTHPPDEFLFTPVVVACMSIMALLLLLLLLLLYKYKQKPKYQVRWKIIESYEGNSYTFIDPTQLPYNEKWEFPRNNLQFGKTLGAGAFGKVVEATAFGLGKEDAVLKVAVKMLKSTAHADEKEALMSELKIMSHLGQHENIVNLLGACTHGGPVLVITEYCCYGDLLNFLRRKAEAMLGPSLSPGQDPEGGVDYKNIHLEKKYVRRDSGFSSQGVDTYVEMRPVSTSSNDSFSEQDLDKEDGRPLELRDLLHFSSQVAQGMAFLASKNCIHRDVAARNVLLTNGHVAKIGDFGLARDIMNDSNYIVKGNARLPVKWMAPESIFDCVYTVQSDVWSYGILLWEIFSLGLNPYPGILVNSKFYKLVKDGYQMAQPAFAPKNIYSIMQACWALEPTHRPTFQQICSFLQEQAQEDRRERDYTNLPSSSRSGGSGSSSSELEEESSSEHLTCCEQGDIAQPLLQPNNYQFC

[12] = target: Fibroblast growth factor receptor 3 (Homo sapiens) (UniProt P22607); assay: Inhibition of FGFR3 (unknown origin) at 10 uM after 40 mins by scintillation counting analysis
[13] = target: ALK tyrosine kinase receptor (Homo sapiens) (UniProt Q9UM73); assay: Inhibition of ALK (unknown origin) at 10 uM after 40 mins by scintillation counting analysis
[14] = target: Receptor-type tyrosine-protein kinase FLT3 (Homo sapiens) (UniProt P36888); assay: Inhibition of FLT3 (unknown origin) at 10 uM after 40 mins by scintillation counting analysis
[15] = target: RAC-alpha serine/threonine-protein kinase (Homo sapiens) (UniProt P31749); assay: Inhibition of AKT1 (unknown origin) at 10 uM after 40 mins by scintillation counting analysis
[16] = target: Serine/threonine-protein kinase B-raf (Homo sapiens, UniProt P15056, V600E); assay: Inhibition of BRAF V599E mutant (unknown origin) after 40 mins by scintillation counting analysis
[17] = target: Epidermal growth factor receptor (Homo sapiens) (UniProt P00533); assay: Inhibition of EGFR (unknown origin) at 10 uM after 40 mins by scintillation counting analysis
[18] = tested on: Serine/threonine-protein kinase B-raf (Homo sapiens), P15056 [V600E]; assay: Inhibition of BRAF V599E mutant (unknown origin) at 10 uM after 40 mins by scintillation counting analysis
Serine/threonine-protein kinase B-raf (Homo sapiens), P15056 [V600E], sequence (P15056 whole entry V600E): as the sequence (P15056 whole entry) above, with V600E counted along it

[19] = target: Proto-oncogene tyrosine-protein kinase ROS (Homo sapiens) (UniProt P08922); assay: Inhibition of ROS1 (unknown origin) at 10 uM after 40 mins by scintillation counting analysis
[20] = target: Cyclin-dependent kinase 1/cyclin B (Homo sapiens) (UniProt P06493+P14635+Q8WWL7+O95067); assay: Inhibition of CDK1/cyclin B (unknown origin) at 10 uM after 40 mins by scintillation counting analysis; assay type: protein-complex assay
[21] = target: T2, Serine/threonine-protein kinase B-raf; assay: Inhibition of BRAF (unknown origin) after 40 mins by scintillation counting analysis
[22] = target: T4, Serine/threonine-protein kinase mTOR (Homo sapiens, UniProt P42345); assay: Inhibition of mTOR (unknown origin) at 10 uM after 40 mins by scintillation counting analysis
[23] = target: Macrophage-stimulating protein receptor (Homo sapiens) (UniProt Q04912); assay: Inhibition of RON (unknown origin) at 10 uM after 40 mins by scintillation counting analysis
[24] = target: Glycogen synthase kinase-3 beta (Homo sapiens) (UniProt P49841); assay: Inhibition of GSK3b (unknown origin) at 10 uM after 40 mins by scintillation counting analysis
[25] = target: Vascular endothelial growth factor receptor 2 (Homo sapiens) (UniProt P35968); assay: Inhibition of VEGFR2 (unknown origin) at 10 uM after 40 mins by scintillation counting analysis
[26] = target: Insulin-like growth factor 1 receptor (Homo sapiens) (UniProt P08069); assay: Inhibition of IGF1R (unknown origin) at 10 uM after 40 mins by scintillation counting analysis
[27] = target: T3, Macrophage colony-stimulating factor 1 receptor; assay: Inhibition of FMS (unknown origin) after 40 mins by scintillation counting analysis
[28] = target: cAMP-dependent protein kinase (PKA) (Homo sapiens) (UniProt P22694+P17612+P22612); assay: Inhibition of PKA (unknown origin) at 10 uM after 40 mins by scintillation counting analysis; assay type: protein assay
[29] = target: Tyrosine-protein kinase SYK (Homo sapiens) (UniProt P43405); assay: Inhibition of SYK (unknown origin) at 10 uM after 40 mins by scintillation counting analysis
[30] = target: T5, RAF proto-oncogene serine/threonine-protein kinase (Homo sapiens, UniProt P04049); assay: Inhibition of C-Raf (unknown origin) after 40 mins by scintillation counting analysis
T5 sequence (P04049 whole entry): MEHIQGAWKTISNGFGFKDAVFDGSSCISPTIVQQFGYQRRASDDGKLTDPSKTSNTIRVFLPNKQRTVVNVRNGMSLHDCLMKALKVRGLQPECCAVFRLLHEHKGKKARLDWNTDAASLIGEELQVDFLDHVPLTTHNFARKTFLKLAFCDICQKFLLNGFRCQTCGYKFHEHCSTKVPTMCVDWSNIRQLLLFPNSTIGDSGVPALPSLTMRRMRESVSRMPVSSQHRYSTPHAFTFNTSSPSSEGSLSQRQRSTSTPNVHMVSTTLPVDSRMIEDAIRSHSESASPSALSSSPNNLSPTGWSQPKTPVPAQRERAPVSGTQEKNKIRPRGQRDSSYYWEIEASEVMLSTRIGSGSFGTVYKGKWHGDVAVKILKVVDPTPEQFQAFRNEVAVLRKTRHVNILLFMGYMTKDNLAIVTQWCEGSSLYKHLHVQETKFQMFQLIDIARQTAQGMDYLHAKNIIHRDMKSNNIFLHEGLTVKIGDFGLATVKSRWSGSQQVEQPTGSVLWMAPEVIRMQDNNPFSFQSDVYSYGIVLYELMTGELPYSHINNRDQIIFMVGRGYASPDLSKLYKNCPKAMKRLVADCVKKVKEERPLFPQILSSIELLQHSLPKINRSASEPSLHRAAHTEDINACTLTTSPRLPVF

[31] = target: Dual specificity mitogen-activated protein kinase kinase 1 (Homo sapiens) (UniProt Q02750); assay: Inhibition of MEK1 (unknown origin) at 10 uM after 40 mins by scintillation counting analysis
[32] = target: Focal adhesion kinase 1 (Homo sapiens) (UniProt Q05397); assay: Inhibition of FAK (unknown origin) at 10 uM after 40 mins by scintillation counting analysis
[33] = target: T5, RAF proto-oncogene serine/threonine-protein kinase; assay: Inhibition of RAF1 (unknown origin) at 10 uM after 40 mins by scintillation counting analysis
[34] = target: Aurora kinase A (Homo sapiens) (UniProt O14965); assay: Inhibition of Aurora A (unknown origin) at 10 uM after 40 mins by scintillation counting analysis
[35] = target: Mitogen-activated protein kinase 3 (Homo sapiens) (UniProt P27361); assay: Inhibition of ErK1 (unknown origin) at 10 uM after 40 mins by scintillation counting analysis
[36] = target: Cyclin-dependent kinase 2/cyclin E (Homo sapiens) (UniProt P24864+P24941+O96020); assay: Inhibition of CDK2/cyclin E (unknown origin) at 10 uM after 40 mins by scintillation counting analysis; assay type: protein-complex assay
[37] = target: Mitogen-activated protein kinase 10 (Homo sapiens) (UniProt P53779); assay: Inhibition of JNK3 (unknown origin) at 10 uM after 40 mins by scintillation counting analysis
Mitogen-activated protein kinase 10 (Homo sapiens), sequence (P53779 whole entry): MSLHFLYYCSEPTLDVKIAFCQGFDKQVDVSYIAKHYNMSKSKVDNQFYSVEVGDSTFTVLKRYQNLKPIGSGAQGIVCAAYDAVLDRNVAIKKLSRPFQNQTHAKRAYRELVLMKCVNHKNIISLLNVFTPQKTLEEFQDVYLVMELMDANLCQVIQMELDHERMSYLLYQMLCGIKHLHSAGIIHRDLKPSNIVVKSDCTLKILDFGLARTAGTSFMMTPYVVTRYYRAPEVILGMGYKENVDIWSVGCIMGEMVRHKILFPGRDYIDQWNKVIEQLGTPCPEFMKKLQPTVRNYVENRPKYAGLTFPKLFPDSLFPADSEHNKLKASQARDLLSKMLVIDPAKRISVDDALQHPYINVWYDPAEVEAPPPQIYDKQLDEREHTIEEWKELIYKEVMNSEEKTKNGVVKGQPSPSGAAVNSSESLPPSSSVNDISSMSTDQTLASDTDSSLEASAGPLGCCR

[38] = target: Fibroblast growth factor receptor 2 (Homo sapiens) (UniProt P21802); assay: Inhibition of FGFR2 (unknown origin) at 10 uM after 40 mins by scintillation counting analysis
Fibroblast growth factor receptor 2 (Homo sapiens), sequence (P21802 22-821 limits assumed): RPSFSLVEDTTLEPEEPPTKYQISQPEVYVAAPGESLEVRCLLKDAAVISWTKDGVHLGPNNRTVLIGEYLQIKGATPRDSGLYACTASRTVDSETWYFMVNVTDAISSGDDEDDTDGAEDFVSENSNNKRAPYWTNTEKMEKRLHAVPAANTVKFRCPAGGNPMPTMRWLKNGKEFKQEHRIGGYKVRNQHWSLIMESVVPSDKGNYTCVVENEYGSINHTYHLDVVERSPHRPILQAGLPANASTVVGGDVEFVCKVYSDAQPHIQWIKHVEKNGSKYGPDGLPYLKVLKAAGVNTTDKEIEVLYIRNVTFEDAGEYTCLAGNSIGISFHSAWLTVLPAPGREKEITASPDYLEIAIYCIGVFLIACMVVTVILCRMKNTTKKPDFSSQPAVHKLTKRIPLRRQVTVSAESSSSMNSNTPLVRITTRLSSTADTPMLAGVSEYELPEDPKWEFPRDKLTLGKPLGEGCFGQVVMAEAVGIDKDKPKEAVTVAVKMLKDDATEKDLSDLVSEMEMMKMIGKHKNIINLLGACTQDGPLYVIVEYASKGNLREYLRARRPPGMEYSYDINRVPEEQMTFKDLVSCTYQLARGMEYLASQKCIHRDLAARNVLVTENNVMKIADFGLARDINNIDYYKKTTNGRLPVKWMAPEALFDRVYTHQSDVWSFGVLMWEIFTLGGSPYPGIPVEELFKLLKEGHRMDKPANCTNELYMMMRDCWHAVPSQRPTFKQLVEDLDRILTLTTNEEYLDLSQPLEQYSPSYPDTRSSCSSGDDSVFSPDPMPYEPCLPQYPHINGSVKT

[39] = target: T4, Serine/threonine-protein kinase mTOR; assay: Inhibition of mTOR (unknown origin) after 40 mins by scintillation counting analysis

## Cc1ccc(NC(=O)Cc2c[nH]c3ccccc23)cc1NC(=O)c1cnoc1C
[1]
  GI50 at 24 h: > 30 µM
[2]
  GI50: > 30 µM
[3]
  Activity: inactive

## Cc1ccc(NC(=O)c2ccc(-c3ccccc3)cc2)cc1NC(=O)c1cnoc1C
[1]
  GI50 at 24 h: > 30 µM
[2]
  GI50: > 30 µM
[3]
  Activity: inactive

## Cc1ccc(NC(=O)Nc2ccccc2F)cc1NC(=O)c1cnoc1C
[1]
  GI50 at 24 h: > 30 µM
[2]
  GI50: > 30 µM
[3]
  Activity: inactive

## Cc1cc(NC(=O)Nc2ccccc2F)ccc1NC(=O)c1cnoc1C
[1]
  GI50 at 24 h: > 30 µM
[2]
  GI50: > 30 µM
[3]
  Activity: inactive

## Cc1ccc(NC(=O)c2cc(-n3ccnc3C)cc(C(F)(F)F)c2)cc1NC(=O)c1cnoc1C
[1]
  GI50 at 24 h: > 30 µM
[2]
  GI50: 0.019 µM
[3]
  Activity: inactive

## Cc1ccc(NC(=O)c2cc(N3CCN(C)CC3)cc(C(F)(F)F)c2)cc1NC(=O)c1cnoc1C
[4]
  inhibition: 0%
[5]
  inhibition: 97.8%
[6]
  inhibition: 0%
[7]
  IC50: 0.0659 µM
[8]
  inhibition: 0%
[9]
  inhibition: 61.2%
[1]
  GI50 at 24 h: > 30 µM
[10]
  inhibition: 7.5%
[11]
  inhibition: 98.7%
[12]
  inhibition: 0%
[13]
  inhibition: 0%
[14]
  inhibition: 2.12%
[15]
  inhibition: 5.73%
[16]
  IC50: 0.668 µM
[17]
  inhibition: 4.68%
[18]
  inhibition: 87.9%
[2]
  GI50: 0.016 µM
[19]
  inhibition: 0%
[20]
  inhibition: 0%
[21]
  IC50: 5.96 µM
[22]
  inhibition: 1.14%
[23]
  inhibition: 0%
[24]
  inhibition: 0%
[25]
  inhibition: 8.27%
[26]
  inhibition: 0%
[3]
  Activity: inactive
[27]
  IC50: 0.00995 µM
[28]
  inhibition: 0%
[29]
  inhibition: 3.81%
[30]
  IC50: 0.0448 µM
[31]
  inhibition: 0%
[32]
  inhibition: 0%
[33]
  inhibition: 95.9%
[34]
  inhibition: 0%
[35]
  inhibition: 7.54%
[36]
  inhibition: 1.85%
[37]
  inhibition: 15.3%
[38]
  inhibition: 3.6%

## Cc1cc(NC(=O)Nc2cc(Cl)cc(Cl)c2)ccc1NC(=O)c1cnoc1C
[1]
  GI50 at 24 h: > 30 µM
[2]
  GI50: > 30 µM
[3]
  Activity: inactive

## Cc1ccc(NC(=O)Nc2cc(Cl)cc(Cl)c2)cc1NC(=O)c1cnoc1C
[1]
  GI50 at 24 h: > 30 µM
[2]
  GI50: > 30 µM
[3]
  Activity: inactive

## Cc1cc(NC(=O)Nc2ccc(Cl)cc2)ccc1NC(=O)c1cnoc1C
[1]
  GI50 at 24 h: > 30 µM
[2]
  GI50: > 30 µM
[3]
  Activity: inactive

## Cc1cc(NC(=O)Nc2ccc(Cl)c(C(F)(F)F)c2)ccc1NC(=O)c1cnoc1C
[1]
  GI50 at 24 h: > 30 µM
[2]
  GI50: 16.5 µM
[3]
  Activity: inactive

## O=c1cc(N2CCOCC2)oc2c(-c3ccccc3)cccc12 [LY-294002]
[39]
  IC50: 9.9 µM

## CCCS(=O)(=O)Nc1ccc(NC(=O)c2cnoc2C)c(C)c1
[1]
  GI50 at 24 h: > 30 µM
[2]
  GI50: > 30 µM
[3]
  Activity: inactive

## Cc1ccc(NC(=O)c2cnn(-c3ccccc3)c2C(F)(F)F)cc1NC(=O)c1cnoc1C
[1]
  GI50 at 24 h: > 30 µM
[2]
  GI50: 0.139 µM
[3]
  Activity: inactive

## Cc1cc(NC(=O)Nc2cccc(Cl)c2)ccc1NC(=O)c1cnoc1C
[1]
  GI50 at 24 h: > 30 µM
[2]
  GI50: > 30 µM
[3]
  Activity: inactive

## Cc1cn(-c2cc(C(=O)Nc3ccc(C)c(NC(=O)c4cnoc4C)c3)cc(C(F)(F)F)c2)cn1
[1]
  GI50 at 24 h: > 30 µM
[2]
  GI50: 0.049 µM
[3]
  Activity: inactive

## Cc1cc(NC(=O)Nc2ccc(Cl)c(Cl)c2)ccc1NC(=O)c1cnoc1C
[1]
  GI50 at 24 h: > 30 µM
[2]
  GI50: > 30 µM
[3]
  Activity: inactive

## Cc1ccc(NC(=O)Nc2ccc(Cl)c(C(F)(F)F)c2)cc1NC(=O)c1cnoc1C
[1]
  GI50 at 24 h: > 30 µM
[2]
  GI50: > 30 µM
[3]
  Activity: inactive
